Active and inactive are the calls of the source. The rule behind the calls is not given here.
Key:
[1] = Acute toxicity in mouse assessed as pathological changes in spleen at 10 to 20 mg/kg, ip administered once daily for 20 days by hematoxyin-eosin staining based analysis; format: organism-based; settings: in vivo, 480 h, dose 10-20 mg/kg, time 20 day
BV-2 [2] = assay: Antiinflammatory activity in LPS stimulated mouse BV-2 cells assessed as reduction in COX2 expression at 0.5 to 2 uM pretreated with compound for 1 hr followed by LPS stimulation and measured after 24 hrs by qRT-PCR analysis; format: functional, cell-based; settings: dose 0.5-2 µM, time 25.0 hrs
[3] = Apparent volume of distribution in C57BL/6J mouse at 20 mg/kg, […] measured up to 24 hrs by LC-MS/MS analysis; format: ADME, organism-based; settings: in vivo, read-out: Vz
Mus musculus [4] = assay: Downregulation of kynurenine level in serum of LPS induced mouse at 20 mg/kg, ip pretreated with compound administered once daily for 2 days followed by LPS injection by UHPLC-HRMS analysis; format: functional, organism-based; settings: time 2.0 day
Mus musculus [5] = assay: Downregulation of IDO1 expression in hippocampus of LPS induced mouse at 20 mg/kg, ip pretreated with compound administered once daily for 2 days followed by LPS injection by Western blotting analysis; format: functional, organism-based; settings: time 2.0 day
BV-2 [6] = assay: Antiinflammatory activity in LPS stimulated mouse BV-2 cells assessed as increase in IL-10 expression at 0.5 to 2 uM pretreated with compound for 1 hr followed by LPS stimulation and measured after 24 hrs by qRT-PCR analysis; format: functional, cell-based; settings: dose 0.5-2 µM, time 25.0 hrs
[7] = AUC (0 to 24 hrs) in C57BL/6J mouse at 20 mg/kg, iv measured up to 24 hrs by LC-MS/MS analysis; format: ADME, organism-based; set-up: dose 20 mg/kg, time < 24 hrs, route iv; settings: in vivo
Mus musculus [8] = assay: Antiinflammatory activity in LPS induced mouse assessed as reduction in TNF-alpha expression in hippocampus at 20 mg/kg, ip pretreated with compound administered once daily for 2 days followed by LPS injection by qPCR analysis; format: functional, organism-based; settings: time 2.0 day
Mus musculus [9] = assay: Antidepressant activity in LPS induced mouse model assessed as rescue of decrease in immobility time at 20 mg/kg, ip pretreated with compound administered once daily for 2 days followed by LPS injection by forced swim test; format: functional, organism-based; settings: time 2.0 day
[10] = MRT (0 to infinity) in C57BL/6J mouse at 20 mg/kg, iv measured up to 24 hrs by LC-MS/MS analysis; format: ADME, organism-based; settings: in vivo
[11] = Acute toxicity in mouse assessed as pathological changes in liver at 30 mg/kg, ip administered once daily for 20 days by hematoxyin-eosin staining based analysis; format: organism-based; settings: in vivo, 480 h, time 20 day

Compound: c1ccc2c(c1)[nH]c1c(-c3c[nH]cn3)nccc12
- Activity [1]: Non-Toxic
- Activity (BV-2 [2]): Active
- Vd [3]: 7.84 L/kg
- Activity (Mus musculus [4]): Active
- Activity (Mus musculus [5]): Active
- Activity (BV-2 [6]): Active
- AUC(0-t) at 24 h [7]: 8.55 µg·h/mL
- Activity (Mus musculus [8]): Active
- Activity (Mus musculus [9]): Active
- MRT inf [10]: 1.85 h
- Activity [11]: Toxic

Source: ChEMBL document CHEMBL5137086, “Discovery of 1-(Hetero)aryl-β-carboline Derivatives as IDO1/TDO Dual Inhibitors with Antidepressant Activity” (J Med Chem, 2022)
